# What was measured:
# [1] = tested on: Non-transformed hybrids; assay: Field tolerance to quizalofop and 2,4-D: non-transformed hybrids; assay type: in vivo, corn; conditions: 1120 g ae/ha
# Description: (§1) Two field trials were established at field stations in Hawaii and Indiana. […] The hybrid Hi-II×5XH571 is of the same parentage as the AAD1 (v3) event lines. The hybrid Croplan 585SR is a sethoxydim resistant line.
# (§2) The experimental design was a split-plot with four replications. The main plot was herbicide treatment and the sub-plot was AAD1 (v3) event or comparison hybrid. Plots were one row by 3.7 meters with approximately twenty-five seeds planted in each row. For AAD1 events, seeds from a different lineage within the event were planted in each replicate.
# (§3) Glufosinate at 560 g ai/ha was applied to AAD1 (v3) plots at the V2 stage to eliminate non-transformed plants. […] Treatments were applied using backpack broadcast boom equipment delivering 187 L/ha carrier volume at 130-200 kpa pressure.
# (§4) Quizalofop treated plots were visually assessed for crop injury at one and three weeks after application (WAA) using a 0-100% scale, where 0 equals no injury and 100 equals complete death.
# [2] = tested on: AAD1 (v3) event lines; assay: Field tolerance of pDAB3404 T1 corn to quizalofop and 2,4-D: AAD1 (v3) events; assay type: in vivo; conditions: 1120 g ae/ha
# Description: as §1, §2, §3, §4
# [3] = tested on: Arabidopsis thaliana var. Columbia; assay: Arabidopsis plate test bioassay for herbicide degradation; assay type: in vivo; conditions: Arabidopsis thaliana, 168 h, read-out: GR50, Chemical alone
# [4] = tested on: T4 Arabidopsis homozygous for AAD1 (v3) (line AAD1.01.315.076); assay: Foliar-applied auxinic herbicides on homozygous T4 AAD1 (v3) Arabidopsis, % injury 14 DAT; assay type: in vivo, Arabidopsis thaliana; conditions: foliar, 50-3200 g ae/ha
# Description: The ability of AAD1 (v3) to provide resistance to other aryloxyphenoxyalkanoate auxin herbicides in transgenic Arabidopsis was determined by foliar application of various substrates described in Example 6.8. T4 generation Arabidopsis seed, homozygous for AAD1 (v3) (line AAD1.01.315.076) was stratified, and sown into selection trays much like that of Arabidopsis (Example 6.4). A transformed-control line containing PAT and the insect resistance gene Cry1F was planted in a similar manner. Seedlings were transferred to individual 3-inch pots in the greenhouse. All plants were sprayed with the use of a track sprayer set at 187 L/ha. […] All applications were formulated in 200 mM Hepes buffer (pH 7.5). Each treatment was replicated 3-4 times. Plants were evaluated at 3 and 14 days after treatment and are averaged over two experiments.
smiles,measurement,setting,value
"CNC.O=C(O)COc1ccc(Cl)cc1Cl [2,4-D amine]",%Leaning 2 DAA (0-100 scale),"[1]; HI, CROPLAN 585SR",33%
same,Braceroot Deformation 3-4 WAA (0-10 scale),"[1]; HI, CROPLAN 585SR",9
same,%Leaning 2 DAA (0-100 scale),"[1]; HI, DK493",23%
same,Braceroot Deformation 3-4 WAA (0-10 scale),"[1]; HI, DK493",9
same,%Leaning 2 DAA (0-100 scale),"[1]; HI, HI-II X 5XH571",34%
same,Braceroot Deformation 3-4 WAA (0-10 scale),"[1]; HI, HI-II X 5XH571",9
same,%Leaning 2 DAA (0-100 scale),"[1]; IN, CROPLAN 585SR",11%
same,Braceroot Deformation 3-4 WAA (0-10 scale),"[1]; IN, CROPLAN 585SR",9
same,%Leaning 2 DAA (0-100 scale),"[1]; IN, DK493",20%
same,Braceroot Deformation 3-4 WAA (0-10 scale),"[1]; IN, DK493",8
same,%Leaning 2 DAA (0-100 scale),"[1]; IN, HI-II X 5XH571",13%
same,Braceroot Deformation 3-4 WAA (0-10 scale),"[1]; IN, HI-II X 5XH571",7
same,%Leaning 2 DAA (0-100 scale),"[2]; HI, 3404.001",5%
same,Braceroot Deformation 3-4 WAA (0-10 scale),"[2]; HI, 3404.001",2
same,%Leaning 2 DAA (0-100 scale),"[2]; HI, 3404.006",0%
same,Braceroot Deformation 3-4 WAA (0-10 scale),"[2]; HI, 3404.006",0
same,%Leaning 2 DAA (0-100 scale),"[2]; HI, 3404.013",0%
same,Braceroot Deformation 3-4 WAA (0-10 scale),"[2]; HI, 3404.013",0
same,%Leaning 2 DAA (0-100 scale),"[2]; HI, 3404.017",0%
same,Braceroot Deformation 3-4 WAA (0-10 scale),"[2]; HI, 3404.017",0
same,%Leaning 2 DAA (0-100 scale),"[2]; HI, 3404.020",0%
same,Braceroot Deformation 3-4 WAA (0-10 scale),"[2]; HI, 3404.020",0
same,%Leaning 2 DAA (0-100 scale),"[2]; HI, 3404.022",0%
same,Braceroot Deformation 3-4 WAA (0-10 scale),"[2]; HI, 3404.022",0
same,%Leaning 2 DAA (0-100 scale),"[2]; HI, 3404.025",0%
same,Braceroot Deformation 3-4 WAA (0-10 scale),"[2]; HI, 3404.025",0
same,%Leaning 2 DAA (0-100 scale),"[2]; HI, 3404.027",0%
same,Braceroot Deformation 3-4 WAA (0-10 scale),"[2]; HI, 3404.027",0
same,%Leaning 2 DAA (0-100 scale),"[2]; HI, 3404.031",0%
same,Braceroot Deformation 3-4 WAA (0-10 scale),"[2]; HI, 3404.031",0
same,%Leaning 2 DAA (0-100 scale),"[2]; HI, 3404.033",0%
same,Braceroot Deformation 3-4 WAA (0-10 scale),"[2]; HI, 3404.033",0
same,%Leaning 2 DAA (0-100 scale),"[2]; HI, 3404.036",0%
same,Braceroot Deformation 3-4 WAA (0-10 scale),"[2]; HI, 3404.036",0
same,%Leaning 2 DAA (0-100 scale),"[2]; HI, 3404.044",0%
same,Braceroot Deformation 3-4 WAA (0-10 scale),"[2]; HI, 3404.044",1
same,%Leaning 2 DAA (0-100 scale),"[2]; HI, 3404.050",1%
same,Braceroot Deformation 3-4 WAA (0-10 scale),"[2]; HI, 3404.050",1
same,%Leaning 2 DAA (0-100 scale),"[2]; HI, 3404.053",0%
same,Braceroot Deformation 3-4 WAA (0-10 scale),"[2]; HI, 3404.053",0
same,%Leaning 2 DAA (0-100 scale),"[2]; HI, 3404.074",0%
same,Braceroot Deformation 3-4 WAA (0-10 scale),"[2]; HI, 3404.074",0
same,%Leaning 2 DAA (0-100 scale),"[2]; HI, 3404.082",0%
same,Braceroot Deformation 3-4 WAA (0-10 scale),"[2]; HI, 3404.082",1
same,%Leaning 2 DAA (0-100 scale),"[2]; IN, 3404.001",0%
same,Braceroot Deformation 3-4 WAA (0-10 scale),"[2]; IN, 3404.001",1
same,%Leaning 2 DAA (0-100 scale),"[2]; IN, 3404.006",0%
same,Braceroot Deformation 3-4 WAA (0-10 scale),"[2]; IN, 3404.006",0
same,%Leaning 2 DAA (0-100 scale),"[2]; IN, 3404.013",0%
same,Braceroot Deformation 3-4 WAA (0-10 scale),"[2]; IN, 3404.013",0
same,%Leaning 2 DAA (0-100 scale),"[2]; IN, 3404.017",1%
same,Braceroot Deformation 3-4 WAA (0-10 scale),"[2]; IN, 3404.017",0
same,%Leaning 2 DAA (0-100 scale),"[2]; IN, 3404.020",0%
same,Braceroot Deformation 3-4 WAA (0-10 scale),"[2]; IN, 3404.020",0
same,%Leaning 2 DAA (0-100 scale),"[2]; IN, 3404.022",1%
same,Braceroot Deformation 3-4 WAA (0-10 scale),"[2]; IN, 3404.022",0
same,%Leaning 2 DAA (0-100 scale),"[2]; IN, 3404.025",0%
same,Braceroot Deformation 3-4 WAA (0-10 scale),"[2]; IN, 3404.025",0
same,%Leaning 2 DAA (0-100 scale),"[2]; IN, 3404.027",3%
same,Braceroot Deformation 3-4 WAA (0-10 scale),"[2]; IN, 3404.027",0
same,%Leaning 2 DAA (0-100 scale),"[2]; IN, 3404.031",1%
same,Braceroot Deformation 3-4 WAA (0-10 scale),"[2]; IN, 3404.031",0
same,%Leaning 2 DAA (0-100 scale),"[2]; IN, 3404.033",0%
same,Braceroot Deformation 3-4 WAA (0-10 scale),"[2]; IN, 3404.033",0
same,%Leaning 2 DAA (0-100 scale),"[2]; IN, 3404.036",0%
same,Braceroot Deformation 3-4 WAA (0-10 scale),"[2]; IN, 3404.036",0
same,%Leaning 2 DAA (0-100 scale),"[2]; IN, 3404.044",1%
same,Braceroot Deformation 3-4 WAA (0-10 scale),"[2]; IN, 3404.044",0
same,%Leaning 2 DAA (0-100 scale),"[2]; IN, 3404.050",0%
same,Braceroot Deformation 3-4 WAA (0-10 scale),"[2]; IN, 3404.050",0
same,%Leaning 2 DAA (0-100 scale),"[2]; IN, 3404.053",1%
same,Braceroot Deformation 3-4 WAA (0-10 scale),"[2]; IN, 3404.053",0
same,%Leaning 2 DAA (0-100 scale),"[2]; IN, 3404.074",0%
same,Braceroot Deformation 3-4 WAA (0-10 scale),"[2]; IN, 3404.074",0
same,%Leaning 2 DAA (0-100 scale),"[2]; IN, 3404.082",0%
same,Braceroot Deformation 3-4 WAA (0-10 scale),"[2]; IN, 3404.082",0
"Oc1ccc(Cl)cc1Cl [DCP, 2,4-dichlorophenol]",IC50,[3],> 1 µM
same,effect of the metabolite on wildtype or transgenic Arabidopsis,[4],no effect

# Reference: patent US10450549B2, “Aryloxyphenoxypropionate tolerance in turfrgass species and use of AAD1 as a selectable marker” (Dow AgroSciences, LLC, priority 2004, dated 2019)
